# Test results: patent publication US8633204B2 (Pfizer Inc., priority 2006, dated 2014)
# Experiments:
# PI3-Kα = PI3-Kα (Mus musculus (Mouse), UniProt P42337); test: PI3-Kα Biochemical Assay (fluorescence polarization kinase assay)
# In short: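 Co-expressed mouse p110/p85 PI3-Kα (4 nM stock) acting on PI(4,5)P2 (60 μM stock) with ATP/MgCl2 in HEPES pH 7.4 buffer, 35 min at room temperature, then EDTA stop. PI(3,4,5)P3 product detected by displacement of TAMRA-PIP3 from Grip1 PH domain (FP, 535/580 nm). IC50 from sigmoidal fit of % inhibition.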
# [1] = system: PI3-K in BT20 cells (phosphorylation of AKT at serine 473); test: PI3-Kα Cellular Assay (AKT Ser473 phosphorylation ELISA in BT20 cells); format: cell-based, human; details: 1 hour incubation
# In short: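 Cells seeded overnight in 0.5% FBS, then exposed 1 h at 37 °C to an 11-concentration 1:3 dilution series, in duplicate.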
# [2] = Homo sapiens, BT-20, pAKT Ser473 ELISA
# Chain of PI3-Kα (P42337 whole entry, the tested form may be a part): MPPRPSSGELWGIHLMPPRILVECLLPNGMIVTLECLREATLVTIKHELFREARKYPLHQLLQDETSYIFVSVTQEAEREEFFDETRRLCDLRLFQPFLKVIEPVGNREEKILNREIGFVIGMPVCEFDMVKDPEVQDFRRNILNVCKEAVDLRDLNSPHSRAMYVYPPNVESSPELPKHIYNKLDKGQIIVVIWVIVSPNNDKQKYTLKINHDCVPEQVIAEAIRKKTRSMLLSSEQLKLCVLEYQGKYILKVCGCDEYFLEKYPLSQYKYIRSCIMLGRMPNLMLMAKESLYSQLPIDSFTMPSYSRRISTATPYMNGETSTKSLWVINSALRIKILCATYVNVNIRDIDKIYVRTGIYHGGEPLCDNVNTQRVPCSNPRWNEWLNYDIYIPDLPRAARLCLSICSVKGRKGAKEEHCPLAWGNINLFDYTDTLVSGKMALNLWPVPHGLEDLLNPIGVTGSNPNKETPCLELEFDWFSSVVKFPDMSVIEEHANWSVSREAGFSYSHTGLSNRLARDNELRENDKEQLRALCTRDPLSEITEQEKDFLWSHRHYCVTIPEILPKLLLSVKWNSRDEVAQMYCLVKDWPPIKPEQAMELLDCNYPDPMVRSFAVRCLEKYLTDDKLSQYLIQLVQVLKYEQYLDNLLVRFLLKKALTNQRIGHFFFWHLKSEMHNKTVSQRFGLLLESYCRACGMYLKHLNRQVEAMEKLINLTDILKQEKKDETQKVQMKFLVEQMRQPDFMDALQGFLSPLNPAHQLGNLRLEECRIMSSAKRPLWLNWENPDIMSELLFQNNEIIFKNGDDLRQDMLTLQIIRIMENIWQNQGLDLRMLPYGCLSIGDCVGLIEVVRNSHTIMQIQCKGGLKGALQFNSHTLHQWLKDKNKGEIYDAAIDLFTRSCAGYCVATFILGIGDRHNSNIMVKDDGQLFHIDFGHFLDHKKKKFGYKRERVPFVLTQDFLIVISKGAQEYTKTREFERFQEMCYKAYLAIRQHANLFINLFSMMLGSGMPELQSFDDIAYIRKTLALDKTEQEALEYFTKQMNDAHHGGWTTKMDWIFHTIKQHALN
# Chain of PI3-Kα (P26450 whole entry partner, the tested form may be a part): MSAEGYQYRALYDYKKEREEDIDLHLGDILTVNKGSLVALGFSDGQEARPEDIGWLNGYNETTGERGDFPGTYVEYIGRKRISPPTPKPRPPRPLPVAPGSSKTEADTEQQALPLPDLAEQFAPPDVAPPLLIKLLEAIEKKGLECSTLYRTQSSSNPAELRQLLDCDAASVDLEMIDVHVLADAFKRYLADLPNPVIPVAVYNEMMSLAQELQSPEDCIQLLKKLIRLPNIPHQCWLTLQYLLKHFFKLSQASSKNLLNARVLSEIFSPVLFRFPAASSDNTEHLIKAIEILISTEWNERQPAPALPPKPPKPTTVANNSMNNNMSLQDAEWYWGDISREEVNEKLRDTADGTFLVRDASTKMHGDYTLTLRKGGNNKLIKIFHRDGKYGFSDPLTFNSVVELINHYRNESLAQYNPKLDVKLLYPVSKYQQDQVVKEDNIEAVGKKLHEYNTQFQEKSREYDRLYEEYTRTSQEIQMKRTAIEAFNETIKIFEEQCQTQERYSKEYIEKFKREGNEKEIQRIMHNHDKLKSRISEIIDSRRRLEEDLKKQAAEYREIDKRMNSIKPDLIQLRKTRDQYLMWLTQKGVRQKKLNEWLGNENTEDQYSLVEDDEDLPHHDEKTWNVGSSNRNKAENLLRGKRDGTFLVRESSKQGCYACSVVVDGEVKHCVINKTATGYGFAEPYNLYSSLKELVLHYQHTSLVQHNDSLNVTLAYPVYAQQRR
IC50 (PI3-Kα) [nM],"IC50 [1, 2] [nM]",IC50 ([1]; pAKT Ser473 ELISA) [nM],SMILES
12,397,,"Cc1nc(N)nc2c1cc(-c1cnn(CC(F)F)c1)c(=O)n2C1CCCC1 [Compound 237, 2-Amino-8-cyclopentyl-6-[1-(2,2-drfluoro-ethyl)-1H-pyrazol-4-yl]-4-methyl 8H-pyrido[2,3-d]pyrimidin-7-one]"
340,4530,,"COc1ccc(-c2cc3c(C)nc(N)nc3n(CCN)c2=O)cn1 [Compound 238, 2-Amino-8-(2-amino-ethyl)-6-(6-methoxy-pyridin-3-yl)-4-methyl-8H-pyrido[2,3-d]pyrimidin-7-one]"
89,101,,"Cc1nc(N)nc2c1cc(-c1cnn(CC(C)(C)O)c1)c(=O)n2C1CCCC1 [Compound 240, 2-Amino-8-cyclopentyl-6-[1-(2-hydroxy-2-methyl-propyl)-1H-pyrazol-4-yl]-4-methyl-8H-pyrido[2,3-d]pyrimidin-7-one]"
15,88.4,,"COc1ccc(-c2cc3c(C)nc(N)nc3n(CC3CCOCC3)c2=O)cn1 [Compound 242, 2-Amino-6-(6-methoxy-pyridin-3-yl)-4-methyl-8-(tetrahydro-pyran-4-ylmethyl)-8H-pyrido[2,3-d]pyrimidin-7-one]"
18,316,,"COc1ccc(-c2cc3c(C)nc(N)nc3n(CC3(F)CCOCC3)c2=O)cn1 [Compound 243, 2-Amino-8-(4-fluoro-tetrahydro-pyran-4-ylmethyl)-6-(6-methoxy-pyridin-3-yl)-4-methyl-8H-pyrido[2,3-d]pyrimidin 7-one]"
30,437,,"COc1ccc(-c2cc3c(C)nc(N)nc3n(CC(C)(C)F)c2=O)cn1 [Compound 244, 2-Amino-8-(2-fluoro-2-methyl-propyl)-6-(6-methoxy-pyridin-3-yl)-4-methyl-8H-pyrido[2,3-d]pyrimidin-7-one]"
67,181,,"CNc1nc(C)c2cc(-c3c[nH]c(C)n3)c(=O)n(C3CCCC3)c2n1 [Compound 245, 8-Cyclopentyl-4-methyl-2-methylamino-6-(2-methyl-1H-imidazol-4-yl)-8H-pyrido[2,3-d]pyrimidin-7-one]"
27,172,,"COc1ccc(-c2cc3c(C)nc(N)nc3n(C3CCN(C(=O)OC(C)(C)C)C3)c2=O)cn1 (stereo not shown) [Compound 246, 3-[2-Amino-6-(6-methoxy-pyridin-3-yl)-4-methyl-7-oxo-7H-pyrido[2,3-d]pyrimidin 8-yl]-pyrrolidine-1-carboxylic acid tert-butyl ester]"
200,671,,"COc1ccc(-c2cc3c(C)nc(N)nc3n(C3CCNC3)c2=O)cn1 (stereo not shown) [Compound 247, 2-Amino-6-(6-methoxy-pyridin-3-yl)-4-methyl-8-pyrrolidin-3-yl-8H-pyrido[2,3-d]pyrimidin-7-one]"
7,127,,"COc1ccc(-c2cc3c(C)nc(N)nc3n(C3CCN(C(C)=O)C3)c2=O)cn1 (stereo not shown) [Compound 248, 8-(1-Acetyl-pyrrolidin-3-yl)-2-amin-6-(6-methoxy-pyridin-3-yl)-4-methyl-8H-pyrido[2,3-d]pyrimidin-7-one]"
2.34,16.4,,"CNc1nc(C)c2cc(C(=O)Nc3cc[nH]n3)c(=O)n(C3CCCC3)c2n1 [Compound 250, 8-Cyclopentyl-4-methyl-2-methylamino-7-oxo-7,8-dihydro-pyrido[2,3-d]pyrimidine-6-carboxylic acid (1H-pyrazol-3-yl)-amide]"
0.59,28.3,,"Cc1nc(N)nc2c1cc(C(=O)Nc1ccn[nH]1)c(=O)n2[C@H]1CC[C@H](O)CC1 [Compound 251, 2-Amino-8-(trans-4-hydroxycyclohexyl)-4-methyl-7-oxo-N-1H-pyrazol-5-yl-7,8-dihydropyrido[2,3-d]pyrimidine-6-carboxamide]"
19,4.92,,"Cc1nc(N)nc2c1cc(-c1ccc(N3CCCC3)nc1)c(=O)n2[C@H]1CC[C@H](O)CC1 [Compound 253, 2-amino-8-(trans-4-hydroxycyclohexyl)-4-methyl-6-(6-pyrrolidin-1-ylpyridin-3-yl)pyrido[23-d]pyrimidin-7(8H)-one]"
2,9.57,,"COc1ncc(-c2cc3c(C)nc(N)nc3n(C3CCCC3)c2=O)cn1 [Compound 255, 2-amino-8-cyclopentyl-6-(2-methoxypyrimidin-5-yl)-4-methylpyrido[23-d]pyrimidin-7(8H)-one]"
3.1,,20.2,Cc1nc(N)nc2c1cc(-c1cccc(CO)c1)c(=O)n2C1CCCC1 [Compound 256]
11,23.1,,"Cc1cc(-c2cc3c(C)nc(N)nc3n(C3CCCC3)c2=O)cnc1N(C)C [Compound 257, 2-amino-8-cyclopentyl-6-[6-(dimethylamino)-5-methylpyridin-3-yl]-4-methylpyrido[23-d]pyrimidin-7(8H)-one]"

IC50 (PI3-Kα) [nM],"IC50 [1, 2] [nM]",IC50 ([1]; pAKT Ser473 ELISA) [nM],SMILES
88,26.5,,"Cc1nc(N)nc2c1cc(-c1ccc(N3CCCC3)nc1)c(=O)n2C1CCCC1 [Compound 258, 2-amino-8-cyclopentyl-4-methyl-6-(6-pyrrolidin-1-ylpyridin-3-yl)pyrido[23-d]pyrimidin-7(8H)-one]"
45,26.7,,"COc1ncc(-c2cc3c(C)nc(N)nc3n(C3CCOCC3)c2=O)cn1 [Compound 259, 2-amino-6-(2-methoxypyrimidin-5-yl)-4-methyl-8-(tetrahydro-2H-pyran-4-yl)pyrido[23-d]pyrimidin-7(8H)-one]"
3.9,33.2,,"Cc1nc(N)nc2c1cc(-c1cccc(CO)c1)c(=O)n2C1CCOCC1 [Compound 260, 2-amino-6-[3-(hydroxymethyl)phenyl]-4-methyl-8-(tetrahydro-2H-pyran-4-yl)pyrido[23-d]pyrimidin-7(8H)-one]"
15,45.9,,"COc1ccc(-c2cc3c(C)nc(N)nc3n(C3CCCC3)c2=O)cc1F [Compound 262, 2-amino-8-cyclopentyl-6-(3-fluoro-4-methoxyphenyl)-4-methylpyrido[23-d]pyrimidin-7(8H)-one]"
3300,10000,,"CCN(CC)C(=O)OCn1cc(-c2cc3c(C)nc(N)nc3n(C(C)C)c2=O)nn1 [Compound 263, (4-(2-Amino-8-isopropyl-4-methyl-7-oxo-7,8-dihydropyrido[2,3-d]pyrimidin-6-yl)-1H-1,2,3-triazol-1-yl)methyl diethylcarbamate]"
62,556,,"Cc1nc(N)nc2c1cc(-c1c[nH]nn1)c(=O)n2C(C)C [Compound 264, 2-Amino-8-isopropyl-4-methyl-6-(1H-1,2,3-triazol-4-yl)pyrido[2,3-d]pyrimidin-7(8H)-one]"
2.2,49.3,,"COc1ncc(-c2cc3c(C)nc(N)nc3n(C(C)C)c2=O)cn1 [Compound 266, 2-amino-8-isopropyl-6-(2-methoxypyrimidin-5-yl)-4-methylpyrido[2,3-d]pyrimidin-7(8H)-one]"
810,10000,,"Cc1nc(N)nc2c1cc(-c1cnc(O)nc1)c(=O)n2C1CCOCC1 [Compound 267, 2-Amino-6-(2-hydroxypyrimidin-5-yl)-4-methyl-8-(tetrahydro-2H-pyran-4-yl)pyrido[2,3-d]pyrimidin-7(8H)-one]"
300,2520,,"Cc1nc(N)nc2c1cc(-c1cnc(O)nc1)c(=O)n2C(C)C [Compound 268, 2-amino-6-(2-hydroxypyrimidin-5-yl)-8-isopropyl-4-methylpyrido[2,3-d]pyrimidin-7(8H)-one]"
95,2090,,"Cc1nc(N)nc2c1cc(C#N)c(=O)n2C1CCC1 [Compound 269, 2-Amino-8-cyclobutyl-4-methyl-7-oxo-7,8-dihydropyrido[2,3-d]pyrimidine-6-carbonitrile]"
110,657,,"C#Cc1cc2c(C)nc(N)nc2n(C2CCC2)c1=O [Compound 270, 2-Amino-8-cyclobutyl-6-ethynyl-4-methylpyrido[2,3-d]pyrimidin-7(8H)-one]"
8.2,42,,"Cc1nc(N)nc2c1cc(-c1cnc3ccccc3c1)c(=O)n2[C@H]1CC[C@H](O)CC1 [Compound 271, 2-amino-8-(trans-4-hydroxycyclohexyl)-4-methyl-6-(quinolin-3-yl)pyrido[2,3-d]pyrirnidin-7(8H)-one]"
12,46.8,,"COc1ccc(-c2cc3c(C)nc(NCC(F)F)nc3n([C@H]3CC[C@H](O)CC3)c2=O)cn1 [Compound 275, 2-(2,2-Difluoroethylamino)-8-(4-hydroxycyclohexyl)-6-(6-methoxypyridin-3-yl)-4-methylpyrido[2,3-d]pyrimidin-7(8H)-one]"
0.788,5.1,,"CCNc1nc(C)c2cc(-c3cnc(OC)c(F)c3)c(=O)n([C@H]3CC[C@H](O)CC3)c2n1 [Compound 276, 2-(ethylamino)-6-(5-fluoro-6-methoxypyridin-3-yl)-8-(trans-4-hydroxycyclohexyl)-4-methylpyrido[2,3-d]pyrimidin-7(8H)-one]"
1.59,20.6,,"CCNc1nc(C)c2cc(-c3cnc(OC)nc3)c(=O)n([C@H]3CC[C@H](O)CC3)c2n1 [Compound 277, 2-(ethylamino)-8-(trans-4-hydroxycyclohexyl)-6-(2-methoxypyrimidin-5-yl)-4-methylpyrido[2,3-d]pyrimidin-7(8H)-one]"
1.3,50.5,,"CCn1nccc1NC(=O)c1cc2c(C)nc(N)nc2n([C@H]2CC[C@H](O)CC2)c1=O [Compound 278, 2-amino-N-(1-ethyl-1H-pyrazol-5-yl)-8-(trans-4-hydroxycyclohexyl)-4-methyl-7-oxo-78-dihydropyrido[23-d]pyrimidine-6-carboxamide]"
